Experimental data as given in patent US20090191580A1, “METHOD OF SCREENING USING c-MET, A NOVEL SUBSTRATE FOR GAMMA-SECRETASE” (Eisai R & D Management Co., Ltd., priority 2007, published 2009).

Test system: cleavage of c-Met by γ-secretase
Assay: Analysis of c-Met processing in c-Met-transfected 293/EBNA-1 cell strain (Western blotting with anti-HA antibody)
Type: cell-based, rat c-Met in HEK293 (293/EBNA-1) cells
Design: dose or concentration left out as unconfirmed
Settings: Compound E added to culture broth, cultured another day, rat c-Met-HA transfected 293/EBNA-1 (HEK293) cells
Protocol: Whether or not c-Met is a substrate for γ-secretase was evaluated using HEK293 cells expressing a gene encoding c-Met with an HA tag added to its C-terminus, in the presence of a γ-secretase inhibitor. As the γ-secretase inhibitor, (2S)-2-{[(3,5-difluorophenyl)acetyl]amino}-N-[(3S)-1-methyl-2-oxo-5-phenyl-2,3-dihydro-1H-1,4-benzodiazepin-3-yl]propanamide (hereinafter, sometimes referred to as “Compound E”) (Alexis Biochemicals) was used.
293/EBNA-1 cell strain (Invitrogen) was cultured in 10% FBS (Hyclone)/DMEM (Invitrogen) under 5% CO2 at 37° C., followed by transfection thereinto of the gene encoding rat c-Met with an HA tag added to its C-terminus using Lipofectamine 2000 (Invitrogen). After one day culture under the same conditions, […] Compound E (Alexis Biochemicals) was added to the culture broth. Cells were cultured for another day under the same conditions. Then, the transfected HEK293 cells were collected with PBS (Sigma) and sonicated with a sonicator (Taitec VP-5S) to disrupt cells. Then, the quantity of protein was determined with Protein Assay Kit (BioRad). Samples (2 μl each) were taken from proteins obtained from Compound E-added cells and Compound E-not added cells, respectively, and subjected to SDS-PAGE, followed by Western blotting with an anti-HA antibody (Roche) (final concentration: 0.2 μg/ml). […]

## C[C@H](NC(=O)Cc1cc(F)cc(F)c1)C(=O)N[C@H]1N=C(c2ccccc2)c2ccccc2N(C)C1=O [Compound E, (2S)-2-{[(3,5-difluorophenyl)acetyl]amino}-N-[(3S)-1-methyl-2-oxo-5-phenyl-2,3-dihydro-1H-1,4-benzodiazepin-3-yl]propanamide]
  c-Met undegraded product (CTF band around 50 kDa) on Western blot: a band around 50 kDa (CTF: C terminal fragment) was accumulated specifically as a c-Met undegraded product
